According to ChEMBL document CHEMBL5604063, “ASAP - DENV-2 NS2B-NS3 protease fluorescence dose response” (2024):
Several values for one entry are separate records, joined by “and”; a condition that tells them apart may be missing. Equal entries are not always repeated.

What follows are molecules tested against Genome polyprotein (dengue virus type 2, UniProt P29990).
Genome polyprotein, sequence (P29990 1346-1475 limits assumed): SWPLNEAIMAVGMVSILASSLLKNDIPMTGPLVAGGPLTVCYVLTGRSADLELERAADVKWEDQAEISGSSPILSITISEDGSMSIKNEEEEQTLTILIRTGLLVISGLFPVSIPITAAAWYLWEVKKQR
Genome polyprotein, sequence (P29990 1476-2093 limits assumed): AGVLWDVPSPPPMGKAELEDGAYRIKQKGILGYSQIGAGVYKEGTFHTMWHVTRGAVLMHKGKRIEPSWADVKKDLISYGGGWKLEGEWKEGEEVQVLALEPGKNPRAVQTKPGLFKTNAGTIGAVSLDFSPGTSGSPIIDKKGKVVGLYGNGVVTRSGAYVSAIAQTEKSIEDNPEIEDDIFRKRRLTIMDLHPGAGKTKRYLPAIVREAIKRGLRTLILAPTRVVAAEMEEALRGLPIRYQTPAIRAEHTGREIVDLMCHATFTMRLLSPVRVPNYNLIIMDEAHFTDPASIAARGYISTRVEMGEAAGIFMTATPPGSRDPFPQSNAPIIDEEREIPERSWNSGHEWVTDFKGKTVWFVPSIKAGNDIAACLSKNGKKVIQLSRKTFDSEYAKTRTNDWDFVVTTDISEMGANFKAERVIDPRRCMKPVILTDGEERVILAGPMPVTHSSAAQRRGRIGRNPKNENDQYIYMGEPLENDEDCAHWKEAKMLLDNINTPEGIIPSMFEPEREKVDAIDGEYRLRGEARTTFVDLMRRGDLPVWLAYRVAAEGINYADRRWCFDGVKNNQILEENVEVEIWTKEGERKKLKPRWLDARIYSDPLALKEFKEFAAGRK
Format: functional, Thailand/16681/1984
For `O=C(N[C@H](C(=O)NCc1cccc(CC(F)(F)F)c1)c1ccc(OCc2ccccc2)cc1)OCc1ccccc1`, the IC50 was > 99.5 µM.
`CCn1c(=O)c(N2CCCC[C@H](N3CCCC3)C2)nc2ccccc21` was tested, and the IC50 was > 99.5 µM.
For `Cc1ccc([C@@H](NC(=O)OCc2ccccc2)C(=O)Nc2cccc(CN)c2)cc1C(F)(F)F`, the IC50 was > 99.5 µM.
With `CCn1c(=O)c(N2C[C@@H](CO)[C@H](c3cncn3C)C2)nc2ccccc21` the IC50 was > 99.5 µM.
For `NC(=O)c1cccnc1N1CCCN(c2nc(-c3cc(Cl)cc(Cl)c3)no2)CC1`, the IC50 was > 99.5 µM.
For `O=c1[nH]ncn1C1CCN(Cc2c[nH]c3ccccc23)CC1`, the IC50 was > 99.5 µM.
`CCn1c(=O)c(N2CC[C@H](N3CCCS3(=O)=O)C2)nc2ccccc21` was tested, and the IC50 was > 99.5 µM.
`N#Cc1ccccc1-c1ccc([C@H](NC(=O)OCc2ccccc2)C(=O)Nc2cccc(CN)c2)cc1` was tested, and the IC50 was 18.6 µM.
`CCNC(=O)[C@@H](NC(=O)OCc1ccccc1)c1ccc(OCc2ccccc2)cc1` was tested, and the IC50 was > 99.5 µM.
`CCn1c(=O)c(N2C[C@H]3C[C@@H](O)CC[C@H]3C2)nc2ccccc21` was tested, and the IC50 was > 99.5 µM.
For `CS(=O)(=O)NCc1ccc(CNC(=O)[C@@H](NC(=O)OCc2ccccc2)c2ccc(OCc3ccccc3)cc2)cc1`, the IC50 was > 99.5 µM.
`O=Cc1ccc(F)c(C(=O)N2CCN(C3=NCCCN3)CC2)c1` was tested, and the IC50 was > 99.5 µM.
In the case of `CCn1cnnc1COc1ccc(S(=O)(=O)Nc2ccc(Cl)cc2C(=O)O)cc1`, the IC50 is reported as > 99.5 µM.
`NCc1cccc(NC(=O)[C@@H](NC(=O)OCc2ccccc2)c2ccc(-c3ccc4scnc4c3)cc2)c1` was tested, and the IC50 was 42.9 µM.
Work on `O=C(NS(=O)(=O)C1CC1)c1cc(Cl)ccc1NS(=O)(=O)c1ccc(Oc2ccccc2Cl)cc1` yielded an IC50 of 7.33 µM.
In the case of `CC(C)n1cc(CNC(=O)[C@@H](NC(=O)OCc2ccccc2)c2ccc(OCc3ccccc3)cc2)cn1`, the IC50 is reported as > 99.5 µM.
In the case of `CN1Cc2ccc(CNC(=O)[C@@H](NC(=O)OCc3ccccc3)c3ccc(OCc4ccccc4)cc3)cc2C1`, the IC50 is reported as > 99.5 µM.
For `CC[C@H]1CN2CCC[C@H]2CN1c1nc2ccccc2n(CC)c1=O`, the IC50 was > 99.5 µM.
In the case of `CCn1c(=O)c(N2C[C@@H]3CN(C4CCC4)C[C@@H]3C2)nc2ccccc21`, the IC50 is reported as > 99.5 µM.
With `CCn1c(=O)c(N2CC3(CCC3)C[C@@H]2C)nc2ccccc21` the IC50 was > 99.5 µM.
In the case of `CC(C)c1cc(-c2ccc([C@@H](NC(=O)OCc3ccccc3)C(=O)Nc3cccc(CN)c3)cc2)on1`, the IC50 is reported as > 99.5 µM.
`NCc1cccc(NC(=O)[C@@H](NC(=O)OCc2ccccc2)c2ccc(-c3ccnc4[nH]ccc34)cc2)c1` was tested, and the IC50 was > 99.5 µM.
For `CCn1cc(-c2ccccc2N)nc(N2CC[C@@H](CO)C2)c1=O`, the IC50 was > 99.5 µM.
`O=C(O)c1cc(Cl)ccc1CNS(=O)(=O)c1ccc(Oc2ccccc2Cl)cc1` showed an IC50 of 98.8 µM.
With `CCn1c(=O)c(N2C[C@@H]3CS(=O)(=O)C[C@@H]3C2)nc2ccccc21` the IC50 was > 99.5 µM.
For `COc1cncc(CNC(=O)[C@@H](NC(=O)OCc2ccccc2)c2ccc(OCc3ccccc3)cc2)c1`, the IC50 was > 99.5 µM.
In the case of `CCn1c(=O)c(N2CC[C@@H](CN3CCCCC3)C2)nc2ccccc21`, the IC50 is reported as > 99.5 µM.
`Cc1noc(C)c1-c1ccc([C@@H](NC(=O)OCc2ccccc2)C(=O)Nc2cccc(CN)c2)cc1` was tested, and the IC50 was > 99.5 µM.
`O=C(O)Cn1ccnc(N2CC[C@@H](CO)C2)c1=O` was tested, and the IC50 was > 99.5 µM.
`CN1CCc2ccc(C(=O)N3CCNc4ccccc4C3)cc2C1` was tested, and the IC50 was > 99.5 µM.
`NS(=O)(=O)c1ccc(N2CCC=C(c3cccc(O)c3)C2)c2ncccc12` was tested, and the IC50 was > 99.5 µM.
For `O=C(O)c1cc(Cl)ccc1NS(=O)(=O)c1ccc(N[C@H]2CCCOC2)nc1`, the IC50 was > 99.5 µM.
With `CCn1c(=O)c(N2C[C@@H]3CCO[C@]3(COC)C2)nc2ccccc21` the IC50 was > 99.5 µM.
With `CCn1c(=O)c(N2CCC[C@H]2c2noc(C)n2)nc2ccccc21` the IC50 was > 99.5 µM.
In the case of `CN(C)Cc1ccccc1CNC(=O)[C@@H](NC(=O)OCc1ccccc1)c1ccc(OCc2ccccc2)cc1`, the IC50 is reported as > 99.5 µM.
For `CN(C)Cc1cncc(NC(=O)[C@@H](NC(=O)OCc2ccccc2)c2ccc(OCc3ccccc3)cc2)c1`, the IC50 was > 99.5 µM.
With `Cc1nc(-c2ccc([C@@H](NC(=O)OCc3ccccc3)C(=O)Nc3cccc(CN)c3)cc2)cs1` the IC50 was > 99.5 µM.
In the case of `O=C(N[C@H](C(=O)NCc1ccc(F)cc1)c1ccc(OCc2ccccc2)cc1)OCc1ccccc1`, the IC50 is reported as > 99.5 µM.
In the case of `CCn1c(=O)c(N2CC[C@@]3(COC(=O)N3)C2)nc2ccccc21`, the IC50 is reported as > 99.5 µM.
In the case of `CN1CCN(Cc2ccccc2CNC(=O)[C@@H](NC(=O)OCc2ccccc2)c2ccc(OCc3ccccc3)cc2)CC1`, the IC50 is reported as > 99.5 µM.
For `NCc1cccc(NC(=O)[C@@H](NC(=O)OCc2ccccc2)c2ccc(C3=CCCOC3)cc2)c1`, the IC50 was > 99.5 µM.
In the case of `CN1CC[C@H](C2CCN(S(=O)(=O)c3cc(F)cc(C(=O)O)c3)CC2)C1`, the IC50 is reported as > 99.5 µM.
`CN(C)CCOc1cccc(CNC(=O)[C@@H](NC(=O)OCc2ccccc2)c2ccc(OCc3ccccc3)cc2)c1` was tested, and the IC50 was > 99.5 µM.
With `CCn1cc(C(=O)O)nc(N2CC[C@@H](CO)C2)c1=O` the IC50 was > 99.5 µM.
`Cc1cnn(-c2cccc(-c3cccc(C4(CN)CC4)c3)c2)c1` was tested, and the IC50 was > 99.5 µM.
For `O=C(N[C@@H](C(=O)Nc1ccc2c(n1)CNC2)c1ccc(OCc2ccccc2)cc1)OCc1ccccc1`, the IC50 was > 99.5 µM.
With `O=C(N[C@@H](C(=O)NCc1cccnc1)c1ccc(OCc2ccccc2)cc1)OCc1ccccc1` the IC50 was > 99.5 µM.
For `CS(=O)(=O)c1cccc(CNC(=O)[C@@H](NC(=O)OCc2ccccc2)c2ccc(OCc3ccccc3)cc2)c1`, the IC50 was > 99.5 µM.
`CCn1c(=O)c(N2CCC[C@H]2c2cncc(Br)c2)nc2ccccc21` was tested, and the IC50 was > 99.5 µM.
In the case of `O=C(N[C@@H](C(=O)NCc1c[nH]cn1)c1ccc(OCc2ccccc2)cc1)OCc1ccccc1`, the IC50 is reported as > 99.5 µM.
With `Cc1ccc(COc2ccc(S(=O)(=O)Nc3ccc(Cl)cc3C(=O)O)cc2)cc1` the IC50 was 9.45 µM.
For `O=C(N[C@@H](C(=O)NC1CCCCC1)c1ccc(OCc2ccccc2)cc1)OCc1ccccc1`, the IC50 was > 99.5 µM.
`CCn1c(=O)c(N2CC[C@H](NC(=O)NC3CC3)C2)nc2ccccc21` was tested, and the IC50 was > 99.5 µM.
In the case of `NCc1cccc(NC(=O)[C@@H](NC(=O)OCc2ccccc2)c2ccc(-c3ccc4cn[nH]c4c3)cc2)c1`, the IC50 is reported as 6.06 µM and 6 µM and 5.75 µM.
`CN1CCC(c2nc(C(F)(F)F)n3c2CN(c2cccc(C(N)=O)n2)CC3)CC1` was tested, and the IC50 was > 99.5 µM.
In the case of `CCn1c(=O)c(N2C[C@H]3COC(C)(C)OC[C@H]3C2)nc2ccccc21`, the IC50 is reported as > 99.5 µM.
In the case of `CN1CCc2ncc(NC(=O)[C@@H](NC(=O)OCc3ccccc3)c3ccc(OCc4ccccc4)cc3)cc2C1`, the IC50 is reported as > 99.5 µM.
With `CCn1c(=O)c(N2CC(S(=O)(=O)N3CCCC3)C2)nc2ccccc21` the IC50 was > 99.5 µM.
With `OCc1ccc(Cl)c(N2CCN(c3ccc4[nH]cnc4c3)CC2)n1` the IC50 was > 99.5 µM.
With `CCn1c(=O)c(N2C[C@@H]3[C@H](C2)[C@H]3C(=O)OC)nc2ccccc21` the IC50 was > 99.5 µM.
With `NCc1cccc(NC(=O)[C@@H](NC(=O)OCc2ccccc2)c2ccc(-c3cccc4nonc34)cc2)c1` the IC50 was 11.6 µM and 5.73 µM.
`CC(C)c1cnc(COc2ccc(S(=O)(=O)Nc3ccc(Cl)cc3C(=O)O)cc2)o1` gave an IC50 of 55.7 µM.
With `O=C(N[C@@H](C(=O)NCc1ccncc1)c1ccc(OCc2ccccc2)cc1)OCc1ccccc1` the IC50 was > 99.5 µM.
In the case of `CCn1c(=O)c(N2CC[C@@H](Cc3ccncc3)C2)nc2ccccc21`, the IC50 is reported as > 99.5 µM.
With `CN(C)Cc1ccc(CNC(=O)[C@@H](NC(=O)OCc2ccccc2)c2ccc(OCc3ccccc3)cc2)cc1` the IC50 was > 99.5 µM.
`NS(=O)(=O)c1cc(F)c(Cl)cc1N1CCN(c2ccnc(O)c2)CC1` was tested, and the IC50 was > 99.5 µM.
In the case of `CCn1c(=O)c(N2CC[C@@]23CCN(C)C3)nc2ccccc21`, the IC50 is reported as > 99.5 µM.
`CCn1c(=O)c(N2CC3(CCCCC3)C[C@H]2CO)nc2ccccc21` was tested, and the IC50 was > 99.5 µM.
`CN(C)Cc1cc(CNC(=O)[C@@H](NC(=O)OCc2ccccc2)c2ccc(OCc3ccccc3)cc2)ccc1F` was tested, and the IC50 was > 99.5 µM.
With `CCn1c(=O)c(N2C[C@H]3CN(C)CC[C@H]3C2)nc2ccccc21` the IC50 was > 99.5 µM.
Work on `COc1ccc(COc2ccc(S(=O)(=O)Nc3ccc(Cl)cc3C(=O)O)cc2)nc1` yielded an IC50 of 74.1 µM.
In the case of `CC(C)(C)c1ncc(-c2ccc([C@@H](NC(=O)OCc3ccccc3)C(=O)Nc3cccc(CN)c3)cc2)o1`, the IC50 is reported as > 99.5 µM.
`CCn1c(=O)c(N2CC[C@]3(CCCN(C)C3)C2)nc2ccccc21` was tested, and the IC50 was > 99.5 µM.
With `O=C(O)c1ncc(F)cc1NS(=O)(=O)c1ccc(Oc2ccccc2Cl)cc1` the IC50 was 61.7 µM.
For `CCn1c(=O)c(N2C[C@H]3OCCN(C(C)=O)[C@H]3C2)nc2ccccc21`, the IC50 was > 99.5 µM.
`CN(C)C(=O)[C@@H](NC(=O)OCc1ccccc1)c1ccc(OCc2ccccc2)cc1` was tested, and the IC50 was > 99.5 µM.
`C[C@@H]1c2cccnc2CCN1Cc1cccc(CN(C)C)c1` was tested, and the IC50 was > 99.5 µM.
`O=C(N[C@@H](C(=O)Nc1cccnc1)c1ccc(OCc2ccccc2)cc1)OCc1ccccc1` was tested, and the IC50 was > 99.5 µM.
`CCn1cc(-c2ccc(S(C)(=O)=O)cc2)nc(N2CC[C@@H](CO)C2)c1=O` was tested, and the IC50 was > 99.5 µM.
`CCn1c(=O)c(N2CC[C@@]3(CCCN3C)C2)nc2ccccc21` was tested, and the IC50 was > 99.5 µM.
For `CNc1nc2cc(-c3ccc4c(c3)C[C@H](N)C4)ccc2o1`, the IC50 was > 99.5 µM.
In the case of `CN(C)[C@H]1CCc2cc(-c3cccc(N4CCNC4=O)c3)ccc2NC1`, the IC50 is reported as > 99.5 µM.
In the case of `NCc1cccc(NC(=O)[C@@H](NC(=O)OCc2ccccc2)c2ccc(-c3ccncc3F)cc2)c1`, the IC50 is reported as > 99.5 µM.
With `O=C(O)c1cc(Cl)c(F)cc1NS(=O)(=O)c1ccc(Oc2ccccc2)cc1` the IC50 was 13.1 µM.
With `COc1ccccc1-c1ccc([C@@H](NC(=O)OCc2ccccc2)C(=O)Nc2cccc(CN)c2)cc1` the IC50 was > 99.5 µM.
With `CCn1cc(-c2ccc(CN(C)C)cc2)nc(N2CC[C@@H](CO)C2)c1=O` the IC50 was > 99.5 µM.
With `CC(C)(CO)NC(=O)[C@@H](NC(=O)OCc1ccccc1)c1ccc(OCc2ccccc2)cc1` the IC50 was > 99.5 µM.
In the case of `Cn1cc(-c2ccc([C@@H](NC(=O)OCc3ccccc3)C(=O)Nc3cccc(CN)c3)cc2)ccc1=O`, the IC50 is reported as > 99.5 µM.
`CCn1c(=O)c(N2C[C@H]3CCCN3C(=O)[C@H]2C)nc2ccccc21` was tested, and the IC50 was > 99.5 µM.
With `CCn1c(=O)c(N2CCC[C@H]2CN2CCCC2)nc2ccccc21` the IC50 was > 99.5 µM.
`O=C(N[C@@H](C(=O)NCc1ccccn1)c1ccc(OCc2ccccc2)cc1)OCc1ccccc1` was tested, and the IC50 was > 99.5 µM.
`CCn1cc(-c2cn(C)nc2C(F)(F)F)nc(N2CC[C@@H](CO)C2)c1=O` was tested, and the IC50 was > 99.5 µM.
With `CN1CCN(Cc2cccc(CNC(=O)[C@@H](NC(=O)OCc3ccccc3)c3ccc(OCc4ccccc4)cc3)c2)CC1` the IC50 was > 99.5 µM.
With `CCn1c(=O)c(N2CC[C@H](N3CCN(C)CC3)C2)nc2ccccc21` the IC50 was > 99.5 µM.
`CCn1c(=O)c(N2CCC[C@H]2c2ncccn2)nc2ccccc21` was tested, and the IC50 was > 99.5 µM.
In the case of `Cn1nc(C2CCN(C(=O)c3ccccc3CSc3nnc[nH]3)CC2)cc1O`, the IC50 is reported as > 99.5 µM.
For `NCc1cccc(NC(=O)[C@@H](NC(=O)OCc2ccccc2)c2ccc(-c3cccc(F)c3)cc2)c1`, the IC50 was 8.05 µM and 6.08 µM and 6.21 µM.
